# Laboratory results taken from ChEMBL document CHEMBL1140015, “Pyrazolone methylamino piperidine derivatives as novel CCR3 antagonists” (Bioorg Med Chem Lett, 2007).
# Experiments:
# [1] = biological target: T1, C-C chemokine receptor type 3 (Homo sapiens, UniProt P51677); test: Displacement of [125I]eotaxin from CCR3 receptor in human eosinophils
# T1 sequence (P51677 whole entry): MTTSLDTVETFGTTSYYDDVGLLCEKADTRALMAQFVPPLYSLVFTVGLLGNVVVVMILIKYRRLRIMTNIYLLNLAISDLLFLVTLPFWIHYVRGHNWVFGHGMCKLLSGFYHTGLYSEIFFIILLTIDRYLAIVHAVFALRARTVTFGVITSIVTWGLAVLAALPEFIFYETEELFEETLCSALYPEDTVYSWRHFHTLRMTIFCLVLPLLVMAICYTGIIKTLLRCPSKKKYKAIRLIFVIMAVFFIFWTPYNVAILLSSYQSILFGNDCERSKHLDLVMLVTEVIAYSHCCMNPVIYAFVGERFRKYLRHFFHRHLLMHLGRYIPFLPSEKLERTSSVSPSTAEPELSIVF
# Hepatocyte [2] = test: Metabolic stability in rat hepatocytes after 19 hrs; assay type: ADME, cell-based
# [3] = Metabolic stability in rat liver microsomes assessed as intrinsic clearance; assay type: ADME, Microsome
# Hepatocyte [4] = test: Metabolic stability in rat hepatocytes after 2 hrs; assay type: ADME, cell-based
# [5] = Solubility in water at pH 7.4
# [6] = Permeability from apical to basolateral side of Caco-2 cell membrane; settings: human
# [7] = biological target: T1, C-C chemokine receptor type 3; test: Antagonist activity at human CCR3 receptor assessed as inhibition of calcium flux; assay type: functional
IC50 [1] [µM],Stability (Hepatocyte [2]) [%],microsomal CLint [3] [µL/min/mg],Stability (Hepatocyte [4]) [%],solubility [5] [mg/mL],Papp A→B [6] [nm/s],IC50 [7] [µM],Structure (SMILES)
0.1,–,–,–,–,–,–,Cc1c(CN(CCc2ccc(Cl)cc2)C2CCN(C(=O)c3c(F)cccc3F)CC2)c(=O)n(C2CCCCC2)n1C
1,78,82,35,–,–,–,Cc1c(CN(CCc2ccccn2)C2CCN(C(=O)c3c(F)cccc3F)CC2)c(=O)n(-c2ccc(F)cc2)n1C
0.079,–,–,–,–,–,–,Cc1c(CN(CCc2ccc(Cl)cc2)C2CCN(C(=O)c3c(F)cccc3F)CC2)c(=O)n(-c2ccc(N)cc2)n1C
0.158,–,–,–,–,–,–,Cc1c(CN(CCc2ccc(Cl)cc2)C2CCN(C(=O)c3c(F)cccc3F)CC2)c(=O)n(-c2ccc(C#N)cc2)n1C
0.1,–,–,–,–,–,–,COc1ccc(-n2c(=O)c(CN(CCc3ccc(Cl)cc3)C3CCN(C(=O)c4c(F)cccc4F)CC3)c(C)n2C)cc1
2.5,–,–,–,–,–,–,Cc1c(CN(CCc2ccc(Cl)cc2)C2CCN(C(=O)c3c(F)cccc3F)CC2)c(=O)n(-c2ccc(C(=O)O)cc2)n1C
0.063,–,–,–,–,–,–,Cc1c(CN(CCc2ccc(Cl)cc2)C2CCN(C(=O)c3c(F)cccc3F)CC2)c(=O)n(-c2ccc(Cl)cc2)n1C
0.25,–,–,–,–,–,–,COc1ccncc1-n1c(=O)c(CN(CCc2ccc(Cl)cc2)C2CCN(C(=O)c3c(F)cccc3F)CC2)c(C)n1C
0.2,–,303,–,0.1,–,–,Cc1c(CN(CCc2ccc(F)cc2)C2CCN(C(=O)c3c(F)cccc3F)CC2)c(=O)n(-c2ccc(F)cc2)n1C
2.5,71,< 50,23,0.9,< 10,–,Cc1c(CN(CCc2ccc(N)cc2)C2CCN(C(=O)c3c(F)cccc3F)CC2)c(=O)n(-c2ccc(F)cc2)n1C
0.032,–,–,–,–,–,–,Cc1c(CN(CCc2ccc(Cl)cc2)C2CCN(C(=O)c3c(F)cccc3F)CC2)c(=O)n(-c2ccccc2)n1C
0.158,–,–,–,–,–,–,Cc1c(CN(CCCCc2ccccc2)C2CCN(C(=O)c3cccc4ccccc34)CC2)c(=O)n(-c2ccccc2)n1C
0.02,95,472,52,0.001,81,0.016,Cc1c(CN(CCc2ccc(Cl)cc2)C2CCN(C(=O)c3c(F)cccc3F)CC2)c(=O)n(-c2ccc(F)cc2)n1C
0.0063,95,235,35,0.1,–,–,Cc1c(CN(CCc2ccc([N+](=O)[O-])cc2)C2CCN(C(=O)c3c(F)cccc3F)CC2)c(=O)n(-c2ccc(F)cc2)n1C
0.012,94,79,38,1.2,–,–,Cc1ccc(C(=O)N2CCC(N(CCc3ccc([N+](=O)[O-])cc3)Cc3c(C)n(C)n(-c4ccc(F)cc4)c3=O)CC2)c(C)n1
0.012,82,62,29,1.26,78,–,Cc1c(CN(CCc2ccc([N+](=O)[O-])cc2)C2CCN(C(=O)c3ccccn3)CC2)c(=O)n(-c2ccc(F)cc2)n1C
> 10,86,< 50,43,0.4,< 10,–,Cc1c(CN(CCc2ccc(S(N)(=O)=O)cc2)C2CCN(C(=O)c3c(F)cccc3F)CC2)c(=O)n(-c2ccc(F)cc2)n1C
0.4,–,–,–,–,–,–,CC(=O)Nc1ccc(-n2c(=O)c(CN(CCc3ccc(Cl)cc3)C3CCN(C(=O)c4c(F)cccc4F)CC3)c(C)n2C)cc1
0.2,55,< 50,15,> 2,13,–,Cc1c(CN(CCc2ccc(Cl)cc2)C2CCN(C(=O)c3cccc[n+]3[O-])CC2)c(=O)n(-c2ccc(F)cc2)n1C
0.1,–,–,–,–,–,–,Cc1c(CN(CCc2ccc(Cl)cc2)C2CCN(C(=O)c3c(F)cccc3F)CC2)c(=O)n(-c2ccc(N(C)C)cc2)n1C
0.1,–,–,–,–,–,–,Cc1c(CN(CCc2ccc(Cl)cc2)C2CCN(C(=O)c3c(F)cccc3F)CC2)c(=O)n(-c2cnccc2Cl)n1C
0.1,–,–,–,–,–,–,Cc1c(CN(CCc2ccc(Cl)cc2)C2CCN(C(=O)c3c(F)cccc3F)CC2)c(=O)n(-c2cccc(F)c2)n1C
0.04,–,–,–,–,–,–,Cc1c(CN(CCc2ccc(Cl)cc2)C2CCN(C(=O)c3c(F)cccc3F)CC2)c(=O)n(-c2ccccc2F)n1C
0.1,–,–,–,–,–,–,Cc1c(CN(CCc2ccc(Cl)cc2)C2CCN(C(=O)c3c(F)cccc3F)CC2)c(=O)n(-c2ccc(O)cc2)n1C
0.1,–,–,–,–,–,–,Cc1c(CN(CCc2ccc(Cl)cc2)C2CCN(C(=O)c3c(F)cccc3F)CC2)c(=O)n(-c2ccc([N+](=O)[O-])cc2)n1C
0.025,–,–,–,–,–,–,Cc1c(CN(CCc2ccc(Cl)cc2)C2CCN(C(=O)c3c(F)cccc3F)CC2)c(=O)n(-c2ccccn2)n1C
2.5,–,113,–,> 2,–,–,Cc1c(CN(CCc2cccnc2)C2CCN(C(=O)c3c(F)cccc3F)CC2)c(=O)n(-c2ccc(F)cc2)n1C
